Results: patent US9181232B2, “Difluoro-hexahydro-cyclopentaoxazinyls and difluoro-hexahydro-benzooxazinyls as BACE1 inhibitors” (Hoffmann-La Roche Inc., priority 2012, dated 2015)

Assays:
BACE1 = biological target: T1, BACE1 (Homo sapiens, UniProt P56817); assay: Cellular Aβ-lowering assay (Aβ40 ELISA, HEK293 cells expressing human APP695); format: cell-based; settings: HEK293 cells stably expressing human APP695; Aβ40 in supernatant after 18-20 hrs; read-out: BACE1 cell act. Aβ40 IC50
T1 construct: Human HEK293 cells which are stably transfected with a vector expressing a cDNA of the human APP wt gene (APP695); endogenous in cells; host or cells: HEK293 stably expressing human APP695 wt
T1 sequence (P56817 46-501): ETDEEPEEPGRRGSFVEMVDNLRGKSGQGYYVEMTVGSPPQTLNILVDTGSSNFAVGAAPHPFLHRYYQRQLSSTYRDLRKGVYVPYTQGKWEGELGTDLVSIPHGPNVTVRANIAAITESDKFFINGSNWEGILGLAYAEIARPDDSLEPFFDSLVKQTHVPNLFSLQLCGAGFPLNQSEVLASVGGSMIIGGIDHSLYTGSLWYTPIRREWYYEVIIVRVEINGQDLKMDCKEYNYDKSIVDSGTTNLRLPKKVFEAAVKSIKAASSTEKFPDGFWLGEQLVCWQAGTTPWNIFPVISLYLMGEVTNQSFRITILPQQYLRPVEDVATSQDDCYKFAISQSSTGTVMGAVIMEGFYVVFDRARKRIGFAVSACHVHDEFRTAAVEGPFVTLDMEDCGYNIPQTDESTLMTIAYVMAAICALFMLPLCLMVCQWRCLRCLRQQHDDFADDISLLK
Method: Human HEK293 cells which are stably transfected with a vector expressing a cDNA of the human APP wt gene (APP695) were used to assess the potency of the compounds in a cellular assay. The cells were seeded in 96-well microtiter plates in cell culture medium (Iscove, plus 10% (v/v) fetal bovine serum, glutamine, penicillin/streptomycin) to about 80% confluence and the compounds were added at a 10× concentration in 1/10 volume of medium without FCS containing 8% DMSO (final concentration of DMSO was kept at 0.8% v/v). After 18-20 hrs incubation at 37° C. and 5% CO2 in a humidified incubator the culture supernatant was harvested for the determination of Aβ40 concentrations. 96 well ELISA plates (e.g., Nunc MaxiSorb) were coated with monoclonal antibody which specifically recognize the C-terminal end of Aβ40^10. After blocking of non-specific binding sites with e.g. 1% BSA and washing, the culture supernatants were added in suitable dilutions together with a horseradish peroxidase-coupled Aβ detection antibody (e.g., antibody 4G8, Senetek, Maryland Heights, Mo.) and incubated for 5 to 7 hrs. Subsequently the wells of the microtiter plate were washed extensively with Tris-buffered saline containing 0.05% Tween 20 and the assay was developed with tetramethylbenzidine/H2O2 in citric acid buffer. After stopping the reaction with one volume 1 N H2SO4 the reaction was measured in an ELISA reader at 450 nm wavelength. The concentrations of Aβ in the culture supernatants were calculated from a standard curve obtained with known amounts of pure Aβ peptide.

[1] = biological target: T2, recombinant human cathepsin E (Homo sapiens, UniProt P14091); assay: Cathepsin E fluorescent substrate kinetic assay; format: biochemical; settings: pH 4.5
T2 construct: purchased R&D Systems
T2 sequence (P14091 54-396): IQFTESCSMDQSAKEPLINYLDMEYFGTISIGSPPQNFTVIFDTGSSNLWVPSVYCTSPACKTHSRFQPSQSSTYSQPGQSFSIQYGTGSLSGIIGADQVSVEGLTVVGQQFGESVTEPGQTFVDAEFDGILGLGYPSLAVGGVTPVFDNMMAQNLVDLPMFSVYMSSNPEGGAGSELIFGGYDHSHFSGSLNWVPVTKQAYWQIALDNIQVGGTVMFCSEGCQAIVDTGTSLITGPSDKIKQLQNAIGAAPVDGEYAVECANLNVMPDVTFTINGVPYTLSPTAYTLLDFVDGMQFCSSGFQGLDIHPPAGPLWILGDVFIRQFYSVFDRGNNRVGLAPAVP
Source text: (§1) The MR121 fluorescence assays described below are based on the fact that MR121 forms a non-fluorescent ground state complex with tryptophan. In solution this formation occurs at millimolar concentrations of tryptophan. The mechanism can be used to design a generic biochemical assay for proteases. A substrate peptide is labeled at the N-terminus with tryptophan and at the C-terminus with the fluorophore MR121 (for cathepsin D the 10 amino acid peptide WTSVLMAAPC-MR121 was used; for cathepsin E, MR121-CKLVFFAEDW was used). In absence of protease activity, the substrates remain intact and the MR121 fluorescence is reduced by the high local Trp-concentration. If the substrates are cleaved by the enzymes the MR121 fluorescence is recovered.
(§2) The fluorescent substrate cathepsin D and cathepsin E kinetic assays were performed at room temperature in 384-well microtiter plates (black with clear flat bottom, non binding surface plates from Corning) in a final volume of 51 μl. The test compounds were serially diluted in DMSO (15 concentrations, 1/3 dilution steps) and 1 μl of diluted compounds were mixed for 10 min with 40 μl of cathepsin D (from human liver, Calbiochem) diluted in assay buffer (100 mM sodium acetate, 0.05% BSA, pH 5.5; final concentration: 200 nM) or with 40 μl of recombinant human cathepsin E (R&D Systems) diluted in assay buffer (100 mM sodium acetate, 0.05% BSA, pH 4.5; final concentration: 0.01 nM). After addition of 10 μl of the cathepsin D substrate WTSVLMAAPC-MR121 diluted in cathepsin D assay buffer (final concentration: 300 nM) or […] cathepsin E substrate MR121-CKLVFFAEDW diluted in cathepsin E assay buffer (final concentration: 300 nM), the plates were strongly shaken for 2 minutes. The enzymatic reaction was followed in a plate: vision reader (Perkin Elmer) (excitation wavelength: 630 nm; emission: 695 nm) for at least 30 minutes in a kinetic measurement detecting an increase of MR121 fluorescence during the reaction time. The slope in the linear range of the kinetic was calculated and the IC50 of the test compounds were determined using a four parameter equation for curve fitting.

[2] = biological target: T3, cathepsin D (from human liver) (Homo sapiens, UniProt P07339); assay: Cathepsin D fluorescent substrate kinetic assay; format: biochemical; settings: pH 5.5
T3 construct: cathepsin D (from human liver, Calbiochem); purchased Calbiochem; host or cells: human liver (tissue-purified)
T3 sequence (P07339 65-162 limits assumed): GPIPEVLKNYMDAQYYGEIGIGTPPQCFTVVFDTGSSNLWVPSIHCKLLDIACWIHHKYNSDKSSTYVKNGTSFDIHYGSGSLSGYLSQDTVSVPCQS
T3 sequence (P07339 169-412 limits assumed): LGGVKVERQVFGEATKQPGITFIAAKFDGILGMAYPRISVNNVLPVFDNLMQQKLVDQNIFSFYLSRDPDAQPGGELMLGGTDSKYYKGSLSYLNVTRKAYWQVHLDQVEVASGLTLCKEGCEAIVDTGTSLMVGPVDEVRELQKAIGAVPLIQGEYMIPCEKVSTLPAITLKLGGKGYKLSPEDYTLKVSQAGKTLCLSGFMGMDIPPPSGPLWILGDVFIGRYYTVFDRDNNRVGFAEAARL
Source text: as §1, §2

CYP3A4 = biological target: T4, CYP3A4 (Homo sapiens, UniProt P08684); assay: CYP inhibition assay, human liver microsomes, midazolam; format: in vitro ADME; settings: read-out: CYP IC50 3A4
T4 construct: 0.2 mg/ml pooled human liver microsomes; from tissue; host or cells: pooled human liver microsomes
T4 sequence (P08684 whole entry): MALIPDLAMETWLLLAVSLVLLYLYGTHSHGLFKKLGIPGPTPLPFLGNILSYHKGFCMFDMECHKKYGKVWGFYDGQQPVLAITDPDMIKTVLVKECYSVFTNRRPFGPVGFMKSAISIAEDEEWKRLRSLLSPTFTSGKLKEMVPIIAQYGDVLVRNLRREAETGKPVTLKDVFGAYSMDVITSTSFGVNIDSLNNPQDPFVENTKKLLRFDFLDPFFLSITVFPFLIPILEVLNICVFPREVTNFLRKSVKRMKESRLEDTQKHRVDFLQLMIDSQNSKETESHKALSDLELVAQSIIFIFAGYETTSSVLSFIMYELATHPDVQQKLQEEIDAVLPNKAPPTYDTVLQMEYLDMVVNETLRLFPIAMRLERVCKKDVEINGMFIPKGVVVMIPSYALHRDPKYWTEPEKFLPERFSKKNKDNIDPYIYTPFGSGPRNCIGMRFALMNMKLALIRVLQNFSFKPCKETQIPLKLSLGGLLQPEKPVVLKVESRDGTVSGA
Method: (§3) Inhibition of cytochromes P450 (CYPs) 2C9, 2D6 and 3A4 was assessed using human liver microsomes and CYP-selective substrate metabolism reactions. 50 μl incubations were made up containing (finally) 0.2 mg/ml pooled human liver microsomes, 5 μM substrate (diclofenac for CYP2C9 [4′hydroxylase], dextromethorphan for CYP2D6 [O-demethylase] or midazolam for CYP3A4 [1′hydroxylase]), 0.25 μL DMSO containing test inhibitor and NADPH regenerating system. Test inhibitor concentrations of 50, 16.7, 5.6, 1.9, 0.6 and 0.2 μM were assessed in singlicate. Incubations were prewarmed to 37° C. for 10 minutes before initiation by addition of NADPH regenerating system. Incubations were quenched after 5 minutes (20 minutes for dextromethorphan) by addition of 50 μl cold acetonitrile containing 20 ng/ml 4-OH-diclofenac-13C6, 20 ng/mL dextrorphan-D3 and 20 ng/mL 1-OH-midazolam-D4. Quenched incubates were stored at −20° C. for at least 1 hour before centrifugation (20,000×g, 20 minutes). Supernatants were removed and diluted 1:1 with water prior to analysis using a RapidFire sample injector system and API4000 mass spectrometer. Peak areas for substrate, metabolite and stable-labelled metabolite standard were determined using MS/MS. The peak area ratios between the metabolite generated by the enzymatic reaction and the internal standard were used in subsequent calculations. The percentage of (DMSO) control activity was calculated for each incubate and IC50 values estimated by non-linear regression. Sulfaphenazole, quinidine or ketoconazole were tested in each CYP2C9, CYP2D6 or CYP3A4 inhibition experiment, respectively, to ensure assay sensitivity and reproducibility. (Validated assays for human cytochrome P450 activities^11)

CYP2D6 = biological target: T5, CYP2D6 (Homo sapiens, UniProt P10635); assay: CYP inhibition assay, human liver microsomes, dextromethorphan; format: in vitro ADME; settings: read-out: CYP IC50 2D6
T5 construct: 0.2 mg/ml pooled human liver microsomes; from tissue; host or cells: pooled human liver microsomes
T5 sequence (P10635 whole entry): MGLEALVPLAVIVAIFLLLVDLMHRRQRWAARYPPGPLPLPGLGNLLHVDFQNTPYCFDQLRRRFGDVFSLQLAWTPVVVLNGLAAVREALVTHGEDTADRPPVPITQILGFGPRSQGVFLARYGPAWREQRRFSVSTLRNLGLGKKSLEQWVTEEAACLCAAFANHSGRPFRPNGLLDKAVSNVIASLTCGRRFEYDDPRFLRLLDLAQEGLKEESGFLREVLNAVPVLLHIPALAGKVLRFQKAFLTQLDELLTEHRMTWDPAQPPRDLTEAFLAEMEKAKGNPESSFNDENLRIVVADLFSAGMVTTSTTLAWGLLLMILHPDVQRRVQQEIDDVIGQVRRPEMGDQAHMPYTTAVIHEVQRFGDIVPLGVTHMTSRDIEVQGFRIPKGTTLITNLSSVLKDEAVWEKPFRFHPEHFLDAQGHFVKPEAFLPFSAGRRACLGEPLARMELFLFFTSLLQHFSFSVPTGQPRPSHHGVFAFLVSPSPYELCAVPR
Method: as §3

CYP2C9 = biological target: T6, CYP2C9 (Homo sapiens, UniProt P11712); assay: CYP inhibition assay, human liver microsomes, diclofenac; format: in vitro ADME; settings: read-out: CYP IC50 2C9
T6 construct: 0.2 mg/ml pooled human liver microsomes; from tissue; host or cells: pooled human liver microsomes
T6 sequence (P11712 whole entry): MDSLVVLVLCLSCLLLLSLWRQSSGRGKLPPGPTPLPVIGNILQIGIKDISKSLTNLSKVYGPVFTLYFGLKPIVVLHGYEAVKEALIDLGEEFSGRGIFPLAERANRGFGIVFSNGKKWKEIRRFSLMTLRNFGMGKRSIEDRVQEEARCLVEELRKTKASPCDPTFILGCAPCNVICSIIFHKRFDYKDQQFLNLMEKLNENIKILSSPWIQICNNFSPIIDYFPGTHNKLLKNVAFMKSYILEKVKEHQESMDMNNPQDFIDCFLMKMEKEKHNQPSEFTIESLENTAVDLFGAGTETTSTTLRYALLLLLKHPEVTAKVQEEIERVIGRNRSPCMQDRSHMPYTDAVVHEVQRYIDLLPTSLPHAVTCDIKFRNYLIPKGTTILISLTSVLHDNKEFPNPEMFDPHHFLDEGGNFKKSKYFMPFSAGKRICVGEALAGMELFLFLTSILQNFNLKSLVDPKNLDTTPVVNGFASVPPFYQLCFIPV
Method: as §3

| Compound | IC50 (BACE1) [nM] | IC50 [1] [µM] | IC50 [2] [µM] | IC50 (CYP3A4) [µM] | IC50 (CYP2D6) [µM] | IC50 (CYP2C9) [µM] |
| --- | --- | --- | --- | --- | --- | --- |
| C[C@]1(c2cc(NC(=O)c3cnc(CF)cn3)ccc2F)N=C(N)O[C@@H]2CCC(F)(F)[C@@H]21 [Example 5, 5-Fluoromethyl-pyrazine-2-carboxylic acid [3-((4S,4aR,7aR)-2-amino-5,5-difluoro-4-methyl-4,4a,5,6,7,7a-hexahydro-cyclopenta[e][1,3]oxazin-4-yl)-4-fluoro-phenyl]-amide] | 5.1 | – | – | – | – | – |
| CC(F)(F)c1cnc(C(=O)Nc2ccc(F)c([C@@]3(C)N=C(N)O[C@@H]4CCC(F)(F)[C@@H]43)c2)cn1 [Example 4, 5-(1,1-Difluoro-ethyl)-pyrazine-2-carboxylic acid [3-((4S,4aR,7aR)-2-amino-5,5-difluoro-4-methyl-4,4a,5,6,7,7a-hexahydro-cyclopenta[e][1,3]oxazin-4-yl)-4-fluoro-phenyl]-amide] | 8.9 | > 200 | 183 | – | – | – |
| C[C@]1(c2cc(NC(=O)c3ccc(Cl)s3)ccc2F)N=C(N)O[C@@H]2CCCC(F)(F)[C@@H]21 [Example 9, 5-Chloro-thiophene-2-carboxylic acid [3-((4S,4aR,8aR)-2-amino-5,5-difluoro-4-methyl-4a,5,6,7,8,8a-hexahydro-4H-benzo[e][1,3]oxazin-4-yl)-4-fluoro-phenyl]-amide] | 350 | > 200 | 105 | > 10 | 1 to 10 | 1 to 10 |
| C[C@]1(c2cc(NC(=O)c3ccc(Cl)cn3)ccc2F)N=C(N)O[C@@H]2CCC(F)(F)[C@@H]21 [Example 3] | 1.9 | – | – | – | – | – |
| C[C@]1(c2cc(NC(=O)c3ccc(Cl)cn3)ccc2F)N=C(N)O[C@@H]2CCCC(F)(F)[C@@H]21 [Example 7, 5-Chloro-pyridine-2-carboxylic acid [3-((4S,4aR,8aR)-2-amino-5,5-difluoro-4-methyl-4a,5,6,7,8,8a-hexahydro-4H-benzo[e][1,3]oxazin-4-yl)-4-fluoro-phenyl]-amide] | 4.9 | – | – | – | – | – |
| C[C@]1(c2cc(NC(=O)c3cnc(C#N)cn3)ccc2F)N=C(N)O[C@@H]2CCC(F)(F)[C@@H]21 [Example 6, 5-Cyano-pyrazine-2-carboxylic acid [3-((4S,4aR,7aR)-2-amino-5,5-difluoro-4-methyl-4,4a,5,6,7,7a-hexahydro-cyclopenta[e][1,3]oxazin-4-yl)-4-fluoro-phenyl]-amide] | 5.5 | – | – | – | – | – |
